Test results from US12275733B2, “Substituted pyrido[3,4-b]indoles for the treatment of cartilage disorders” (Sanofi, priority 2016, dated 2025).

Tests used:
ATDC5 cells = experiment: Chondrogenesis activity assay in ATDC5 cells (collagen type II induction, immunofluorescence); format: cell-based, mouse; settings: Mus musculus; for EC50: collagen type II induction in ATDC5 cells, concentration reaching 50% of maximum induction; for Emax: maximum percent induction of collagen type II relative to internal reference compound at 10 μM, ATDC5 cells
How it was run: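 Collagen type II was stained in fixed, permeabilized cells with an Alexa Fluor 488 secondary and measured by high-content fluorescence imaging. ATDC5 cells had 4 days at 37 °C in insulin-supplemented differentiation medium with compound, typically 40 nM–10 μM, 0.1% DMSO. DMSO wells and a 10 μM internal reference compound were used for normalization.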

[1] = test system: primary human chondrocyte pellet cultures; experiment: Chondrogenesis activity assay in primary human chondrocyte pellet cultures (proteoglycan (aggrecan) induction, Blyscan assay); format: cell-based; settings: for EC50: 336 h, proteoglycan (aggrecan) induction, primary human chondrocyte pellets, 2 weeks culture; for Emax: Homo sapiens, Chondrocyte, maximum percent proteoglycan (aggrecan) induction relative to the internal reference compound at 10 μM

EC50 (ATDC5 cells) | Compound | Emax (ATDC5 cells) | EC50 [1] | Emax [1]
0.097 µM | COc1ccc(-c2cc(Cl)c(C)c3c2[nH]c2c(C)nccc23)cc1 [Example 27, 6-Chloro-8-(4-methoxy-phenyl)-1,5-dimethyl-9H-pyrido[3,4-b]indole] | > 80% | 3.5 µM | > 200%
> 1.1 µM | Cc1nccc2c1[nH]c1c(-c3cnccc3Cl)cc(Cl)cc12 [Example 97, 6-Chloro-8-(4-chloro-pyridin-3-yl)-1-methyl-9H-pyrido[3,4-b]indole] | < 20% | 5.1 µM | > 200%
0.63 µM | COc1ccc(-c2cc(Cl)cc3c4ccnc(C)c4n(C)c23)cc1 [Example 22, 6-Chloro-8-(4-methoxy-phenyl)-1,9-dimethyl-9H-pyrido[3,4-b]indole] | > 80% | 4 µM | > 200%
